Assay results as given in ChEMBL document CHEMBL4130348, “Structure-activity relationship investigation for benzonaphthyridinone derivatives as novel potent Bruton's tyrosine kinase (BTK) irreversible inhibitors” (Eur J Med Chem, 2017).

What was measured:
[1] = biological target: Tyrosine-protein kinase Blk (Homo sapiens, UniProt P51451); test: Inhibition of recombinant full length His-tagged human BLK expressed in baculovirus expression system using poly (4:1 Glu, Tyr) as substrate preincubated for 1 hr followed by substrate addition measured after 1 hr by ADP-glo assay
[2] = biological target: T1, Tyrosine-protein kinase JAK3 (Homo sapiens, UniProt P52333); test: Inhibition of recombinant GST-tagged human JAK3 expressed in baculovirus expression system using poly (4:1 Glu, Tyr) as substrate preincubated for 1 hr followed by substrate addition measured after 1 hr by ADP-glo assay
T1 sequence (P52333 whole entry): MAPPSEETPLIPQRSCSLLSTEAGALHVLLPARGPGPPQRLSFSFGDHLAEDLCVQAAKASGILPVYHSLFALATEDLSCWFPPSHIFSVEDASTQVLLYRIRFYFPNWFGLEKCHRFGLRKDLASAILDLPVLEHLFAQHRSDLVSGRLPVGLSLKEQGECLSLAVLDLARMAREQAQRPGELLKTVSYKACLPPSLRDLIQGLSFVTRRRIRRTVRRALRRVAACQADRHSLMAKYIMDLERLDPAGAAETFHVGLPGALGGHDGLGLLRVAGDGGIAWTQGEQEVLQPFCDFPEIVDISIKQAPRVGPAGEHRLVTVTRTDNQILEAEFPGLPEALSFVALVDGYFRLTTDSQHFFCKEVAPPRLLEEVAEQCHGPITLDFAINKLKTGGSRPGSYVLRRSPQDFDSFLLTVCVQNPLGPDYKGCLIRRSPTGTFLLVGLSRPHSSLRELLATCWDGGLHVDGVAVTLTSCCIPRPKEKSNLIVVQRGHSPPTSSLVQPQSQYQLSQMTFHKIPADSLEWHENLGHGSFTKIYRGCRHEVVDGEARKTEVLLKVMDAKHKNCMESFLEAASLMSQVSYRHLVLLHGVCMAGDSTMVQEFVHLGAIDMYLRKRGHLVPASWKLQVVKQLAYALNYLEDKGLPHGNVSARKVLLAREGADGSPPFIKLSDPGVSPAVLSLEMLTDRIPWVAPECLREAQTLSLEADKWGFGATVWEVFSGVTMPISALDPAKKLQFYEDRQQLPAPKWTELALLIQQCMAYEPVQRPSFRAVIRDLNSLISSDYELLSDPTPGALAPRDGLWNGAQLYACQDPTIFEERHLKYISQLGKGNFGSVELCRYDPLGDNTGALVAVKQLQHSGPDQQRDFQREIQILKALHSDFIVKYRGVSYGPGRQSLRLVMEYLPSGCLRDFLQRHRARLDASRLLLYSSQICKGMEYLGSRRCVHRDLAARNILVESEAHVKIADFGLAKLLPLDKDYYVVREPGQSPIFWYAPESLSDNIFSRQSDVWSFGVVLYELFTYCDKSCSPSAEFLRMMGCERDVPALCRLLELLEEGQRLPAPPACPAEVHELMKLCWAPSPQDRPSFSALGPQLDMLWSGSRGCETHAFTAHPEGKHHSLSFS

[3] = biological target: T2, Tyrosine-protein kinase BTK (Homo sapiens, UniProt Q06187); test: Irreversible inhibition of recombinant full length His-tagged human BTK expressed in baculovirus expression system using poly (4:1 Glu, Tyr) as substrate assessed as ratio of Kinact to Ki preincubated for 2 to 60 mins followed by substrate addition measured after 1 hr by ADP-glo assay
[4] = biological target: T2, Tyrosine-protein kinase BTK; test: Irreversible inhibition of recombinant full length His-tagged human BTK expressed in baculovirus expression system using poly (4:1 Glu, Tyr) as substrate preincubated for 2 to 60 mins followed by substrate addition measured after 1 hr by ADP-glo assay
[5] = biological target: T2, Tyrosine-protein kinase BTK; test: Inhibition of recombinant full length His-tagged human BTK expressed in baculovirus expression system using poly (4:1 Glu, Tyr) as substrate preincubated for 1 hr followed by substrate addition measured after 1 hr by ADP-glo assay
DU-145 = test: Antiproliferative activity against human DU145 cells after 72 hrs by CellTiter-Glo assay; type: functional; conditions: DU-145, 72 h
[6] = biological target: Tyrosine-protein kinase JAK2 (Homo sapiens) (UniProt O60674); test: Inhibition of TEL-fused JAK2 (unknown origin) expressed in mouse BA/F3 cells after 72 hrs by CellTiter-Glo assay; type: cell-based
HEL = test: Antiproliferative activity against human HEL cells after 72 hrs by CellTiter-Glo assay; type: functional
MOLM-14 = test: Antiproliferative activity against human MOLM14 cells after 72 hrs by CellTiter-Glo assay; type: functional; conditions: MOLM-14, 72 h
NCI-H358 = test: Antiproliferative activity against human NCI-H358 cells after 72 hrs by CellTiter-Glo assay; type: functional; conditions: NCI-H358, 72 h
[7] = biological target: Epidermal growth factor receptor (Homo sapiens) (UniProt P00533); test: Inhibition of TEL-fused EGFR (unknown origin) expressed in mouse BA/F3 cells after 72 hrs by CellTiter-Glo assay; type: cell-based
[8] = Antiproliferative activity against human PF138 cells after 72 hrs by CellTiter-Glo assay; type: functional
JVM-2 = test: Antiproliferative activity against human JVM2 cells after 72 hrs by CellTiter-Glo assay; type: functional; conditions: JVM-2, 72 h
OCI-AML2 = test: Antiproliferative activity against human OCI-AML2 cells after 72 hrs by CellTiter-Glo assay; type: functional; conditions: OCI-AML2, 72 h
NAMALVA = test: Antiproliferative activity against human NAMALWA cells after 72 hrs by CellTiter-Glo assay; type: functional
A549 = test: Antiproliferative activity against human A549 cells after 72 hrs by CellTiter-Glo assay; type: functional; conditions: A549, 72 h
U-937 = test: Antiproliferative activity against human U937 cells after 72 hrs by CellTiter-Glo assay; type: functional; conditions: U-937, 72 h
LNCaP C4-2 = test: Antiproliferative activity against human C4-2 cells after 72 hrs by CellTiter-Glo assay; type: functional; conditions: LNCaP C4-2, 72 h
U2932 = test: Antiproliferative activity against human U2932 cells after 72 hrs by CellTiter-Glo assay; type: functional; conditions: U2932, 72 h
NCI-H1975 = test: Antiproliferative activity against human NCI-H1975 cells after 72 hrs by CellTiter-Glo assay; type: functional; conditions: NCI-H1975, 72 h
HCT-116 = test: Antiproliferative activity against human HCT116 cells after 72 hrs by CellTiter-Glo assay; type: functional; conditions: HCT-116, 72 h
[9] = Antiproliferative activity against mouse BA/F3 cells after 72 hrs by CellTiter-Glo assay; type: cell-based, BaF3
CMK = test: Antiproliferative activity against human CMK cells after 72 hrs by CellTiter-Glo assay; type: functional
NALM-6 = test: Antiproliferative activity against human NALM6 cells after 72 hrs by CellTiter-Glo assay; type: functional; conditions: NALM-6, 72 h
[10] = Antiproliferative activity against human MOLM16 cells after 72 hrs by CellTiter-Glo assay; type: functional; conditions: MOLM16, 72 h
NOMO-1 = test: Antiproliferative activity against human NOMO1 cells after 72 hrs by CellTiter-Glo assay; type: functional; conditions: NOMO-1, 72 h
OCI-AML-3 = test: Antiproliferative activity against human OCI-AML3 cells after 72 hrs by CellTiter-Glo assay; type: functional; conditions: OCI-AML-3, 72 h
K562 = test: Antiproliferative activity against human K562 cells after 72 hrs by CellTiter-Glo assay; type: functional; conditions: K562, 72 h
[11] = Antiproliferative activity against human RV1 cells after 72 hrs by CellTiter-Glo assay; type: functional; conditions: RV-1, 72 h
NCI-H460 = test: Antiproliferative activity against human NCI-H460 cells after 72 hrs by CellTiter-Glo assay; type: functional; conditions: NCI-H460, 72 h
Rec1 = test: Antiproliferative activity against human Rec1 cells after 72 hrs by CellTiter-Glo assay; type: functional; conditions: Rec1, 72 h
MOLM-13 = test: Antiproliferative activity against human MOLM13 cells after 72 hrs by CellTiter-Glo assay; type: functional; conditions: MOLM-13, 72 h
[12] = test system: Epidermal growth factor receptor (Homo sapiens), P00533 [L858R,T790M]; test: Inhibition of TEL-fused EGFR T790M/L858R mutant (unknown origin) expressed in mouse BA/F3 cells after 72 hrs by CellTiter-Glo assay; type: cell-based
A-431 = test: Antiproliferative activity against human A431 cells after 72 hrs by CellTiter-Glo assay; type: functional; conditions: A-431, 72 h
Z-138 = test: Antiproliferative activity against human Z138 cells after 72 hrs by CellTiter-Glo assay; type: functional; conditions: Z-138, 72 h
HL-60 = test: Antiproliferative activity against human HL60 cells after 72 hrs by CellTiter-Glo assay; type: functional; conditions: HL-60, 72 h
SU-DHL-2 = test: Antiproliferative activity against human SUDHL2 cells after 72 hrs by CellTiter-Glo assay; type: functional; conditions: SU-DHL-2, 72 h
HeLa = test: Antiproliferative activity against human HeLa cells after 72 hrs by CellTiter-Glo assay; type: functional
NB-4 = test: Antiproliferative activity against human NB4 cells after 72 hrs by CellTiter-Glo assay; type: functional; conditions: NB-4, 72 h
[13] = biological target: Tyrosine-protein kinase JAK1 (Homo sapiens) (UniProt P23458); test: Inhibition of TEL-fused JAK1 (unknown origin) expressed in mouse BA/F3 cells after 72 hrs by CellTiter-Glo assay; type: cell-based
Pfeiffer = test: Antiproliferative activity against human Pfeiffer cells after 72 hrs by CellTiter-Glo assay; type: functional

Tyrosine-protein kinase Blk, sequence (P51451 whole entry): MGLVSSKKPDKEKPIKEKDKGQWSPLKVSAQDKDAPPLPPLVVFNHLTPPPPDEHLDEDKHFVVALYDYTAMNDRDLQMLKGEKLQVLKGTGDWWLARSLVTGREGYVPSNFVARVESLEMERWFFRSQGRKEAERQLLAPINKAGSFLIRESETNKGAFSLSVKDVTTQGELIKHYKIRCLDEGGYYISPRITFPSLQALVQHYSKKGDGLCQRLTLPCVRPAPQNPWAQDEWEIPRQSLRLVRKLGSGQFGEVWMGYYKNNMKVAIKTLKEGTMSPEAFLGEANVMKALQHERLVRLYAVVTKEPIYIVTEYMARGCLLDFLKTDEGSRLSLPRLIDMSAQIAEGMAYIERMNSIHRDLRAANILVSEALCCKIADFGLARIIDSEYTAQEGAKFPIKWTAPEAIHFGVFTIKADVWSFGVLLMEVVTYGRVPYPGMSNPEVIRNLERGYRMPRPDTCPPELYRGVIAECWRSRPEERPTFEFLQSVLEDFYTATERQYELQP
T2 sequence (Q06187 whole entry): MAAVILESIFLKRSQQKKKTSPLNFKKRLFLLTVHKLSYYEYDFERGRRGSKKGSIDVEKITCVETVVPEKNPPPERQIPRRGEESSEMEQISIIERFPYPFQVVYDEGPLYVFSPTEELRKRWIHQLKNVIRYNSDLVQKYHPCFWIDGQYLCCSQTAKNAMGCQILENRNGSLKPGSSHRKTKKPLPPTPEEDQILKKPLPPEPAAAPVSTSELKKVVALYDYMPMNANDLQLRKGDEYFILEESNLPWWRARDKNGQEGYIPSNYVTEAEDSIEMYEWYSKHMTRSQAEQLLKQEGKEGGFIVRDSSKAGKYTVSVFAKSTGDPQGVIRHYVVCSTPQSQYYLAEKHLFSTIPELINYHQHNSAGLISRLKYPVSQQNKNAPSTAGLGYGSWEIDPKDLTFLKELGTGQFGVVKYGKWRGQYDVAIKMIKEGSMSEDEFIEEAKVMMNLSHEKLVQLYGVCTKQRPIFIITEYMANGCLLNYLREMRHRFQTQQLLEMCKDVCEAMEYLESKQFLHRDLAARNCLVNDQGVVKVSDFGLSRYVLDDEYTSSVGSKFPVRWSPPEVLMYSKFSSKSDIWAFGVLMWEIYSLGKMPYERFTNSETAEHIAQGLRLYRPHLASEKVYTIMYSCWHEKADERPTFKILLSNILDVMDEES
Tyrosine-protein kinase JAK2 (Homo sapiens), sequence (O60674 whole entry, the tested form may be a part): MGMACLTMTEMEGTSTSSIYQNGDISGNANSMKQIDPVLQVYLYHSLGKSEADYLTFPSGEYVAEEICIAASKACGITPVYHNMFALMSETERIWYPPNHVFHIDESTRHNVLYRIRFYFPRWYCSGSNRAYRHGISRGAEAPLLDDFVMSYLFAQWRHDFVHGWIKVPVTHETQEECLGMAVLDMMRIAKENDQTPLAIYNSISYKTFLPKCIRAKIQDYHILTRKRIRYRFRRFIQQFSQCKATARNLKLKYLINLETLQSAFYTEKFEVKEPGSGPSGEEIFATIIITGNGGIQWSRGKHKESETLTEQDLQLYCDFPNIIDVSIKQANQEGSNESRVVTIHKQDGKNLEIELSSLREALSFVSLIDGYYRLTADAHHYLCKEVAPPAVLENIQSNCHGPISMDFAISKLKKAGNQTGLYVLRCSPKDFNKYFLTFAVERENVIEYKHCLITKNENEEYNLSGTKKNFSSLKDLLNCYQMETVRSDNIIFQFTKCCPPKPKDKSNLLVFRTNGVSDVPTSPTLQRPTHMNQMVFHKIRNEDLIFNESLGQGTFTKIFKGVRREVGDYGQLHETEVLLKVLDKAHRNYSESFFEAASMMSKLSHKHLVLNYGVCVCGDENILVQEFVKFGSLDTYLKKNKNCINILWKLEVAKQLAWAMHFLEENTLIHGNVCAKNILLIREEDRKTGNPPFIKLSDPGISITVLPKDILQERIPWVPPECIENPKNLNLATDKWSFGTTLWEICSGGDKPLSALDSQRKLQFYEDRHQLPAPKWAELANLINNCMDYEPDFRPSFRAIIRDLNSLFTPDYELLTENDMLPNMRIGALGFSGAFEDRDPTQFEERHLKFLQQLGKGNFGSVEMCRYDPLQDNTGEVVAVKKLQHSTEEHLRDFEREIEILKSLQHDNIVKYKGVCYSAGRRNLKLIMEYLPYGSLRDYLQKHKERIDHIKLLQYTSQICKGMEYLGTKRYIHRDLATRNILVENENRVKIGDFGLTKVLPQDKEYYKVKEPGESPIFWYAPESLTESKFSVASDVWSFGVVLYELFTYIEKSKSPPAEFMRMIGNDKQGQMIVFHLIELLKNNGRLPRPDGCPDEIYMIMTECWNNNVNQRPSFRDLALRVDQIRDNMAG
Epidermal growth factor receptor (Homo sapiens), P00533 [L858R,T790M], sequence (P00533 whole entry T790M/L858R, looked up, the tested form may be a part): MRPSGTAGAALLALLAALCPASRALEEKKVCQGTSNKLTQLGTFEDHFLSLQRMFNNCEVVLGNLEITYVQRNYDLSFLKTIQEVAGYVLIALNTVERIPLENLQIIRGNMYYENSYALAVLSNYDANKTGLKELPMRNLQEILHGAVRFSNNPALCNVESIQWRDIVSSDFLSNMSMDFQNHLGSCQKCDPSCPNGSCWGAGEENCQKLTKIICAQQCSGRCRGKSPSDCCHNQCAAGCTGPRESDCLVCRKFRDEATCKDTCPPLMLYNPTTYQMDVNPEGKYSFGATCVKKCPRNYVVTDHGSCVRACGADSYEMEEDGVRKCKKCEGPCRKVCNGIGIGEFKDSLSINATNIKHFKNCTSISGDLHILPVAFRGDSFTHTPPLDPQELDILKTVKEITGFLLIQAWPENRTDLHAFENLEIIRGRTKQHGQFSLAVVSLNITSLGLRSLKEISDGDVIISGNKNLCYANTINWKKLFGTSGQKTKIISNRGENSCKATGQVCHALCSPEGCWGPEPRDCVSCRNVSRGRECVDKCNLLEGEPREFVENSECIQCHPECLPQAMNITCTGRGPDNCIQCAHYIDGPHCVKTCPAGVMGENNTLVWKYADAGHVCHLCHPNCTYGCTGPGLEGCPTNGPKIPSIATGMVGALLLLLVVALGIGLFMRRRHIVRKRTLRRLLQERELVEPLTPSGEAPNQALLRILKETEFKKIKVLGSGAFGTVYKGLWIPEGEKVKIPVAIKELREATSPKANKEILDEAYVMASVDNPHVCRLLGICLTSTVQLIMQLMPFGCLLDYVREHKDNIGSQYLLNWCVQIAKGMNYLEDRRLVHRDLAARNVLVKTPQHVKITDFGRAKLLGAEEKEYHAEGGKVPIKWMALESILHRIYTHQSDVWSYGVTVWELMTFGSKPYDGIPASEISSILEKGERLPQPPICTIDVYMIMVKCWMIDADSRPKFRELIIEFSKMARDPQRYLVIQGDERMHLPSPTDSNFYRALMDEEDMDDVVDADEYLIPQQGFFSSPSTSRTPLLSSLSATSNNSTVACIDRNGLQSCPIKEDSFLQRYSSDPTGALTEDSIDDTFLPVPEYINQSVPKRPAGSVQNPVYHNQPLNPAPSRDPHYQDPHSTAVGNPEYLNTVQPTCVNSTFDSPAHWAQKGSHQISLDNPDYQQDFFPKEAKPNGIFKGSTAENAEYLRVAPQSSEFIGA
Tyrosine-protein kinase JAK1 (Homo sapiens), sequence (P23458 whole entry, the tested form may be a part): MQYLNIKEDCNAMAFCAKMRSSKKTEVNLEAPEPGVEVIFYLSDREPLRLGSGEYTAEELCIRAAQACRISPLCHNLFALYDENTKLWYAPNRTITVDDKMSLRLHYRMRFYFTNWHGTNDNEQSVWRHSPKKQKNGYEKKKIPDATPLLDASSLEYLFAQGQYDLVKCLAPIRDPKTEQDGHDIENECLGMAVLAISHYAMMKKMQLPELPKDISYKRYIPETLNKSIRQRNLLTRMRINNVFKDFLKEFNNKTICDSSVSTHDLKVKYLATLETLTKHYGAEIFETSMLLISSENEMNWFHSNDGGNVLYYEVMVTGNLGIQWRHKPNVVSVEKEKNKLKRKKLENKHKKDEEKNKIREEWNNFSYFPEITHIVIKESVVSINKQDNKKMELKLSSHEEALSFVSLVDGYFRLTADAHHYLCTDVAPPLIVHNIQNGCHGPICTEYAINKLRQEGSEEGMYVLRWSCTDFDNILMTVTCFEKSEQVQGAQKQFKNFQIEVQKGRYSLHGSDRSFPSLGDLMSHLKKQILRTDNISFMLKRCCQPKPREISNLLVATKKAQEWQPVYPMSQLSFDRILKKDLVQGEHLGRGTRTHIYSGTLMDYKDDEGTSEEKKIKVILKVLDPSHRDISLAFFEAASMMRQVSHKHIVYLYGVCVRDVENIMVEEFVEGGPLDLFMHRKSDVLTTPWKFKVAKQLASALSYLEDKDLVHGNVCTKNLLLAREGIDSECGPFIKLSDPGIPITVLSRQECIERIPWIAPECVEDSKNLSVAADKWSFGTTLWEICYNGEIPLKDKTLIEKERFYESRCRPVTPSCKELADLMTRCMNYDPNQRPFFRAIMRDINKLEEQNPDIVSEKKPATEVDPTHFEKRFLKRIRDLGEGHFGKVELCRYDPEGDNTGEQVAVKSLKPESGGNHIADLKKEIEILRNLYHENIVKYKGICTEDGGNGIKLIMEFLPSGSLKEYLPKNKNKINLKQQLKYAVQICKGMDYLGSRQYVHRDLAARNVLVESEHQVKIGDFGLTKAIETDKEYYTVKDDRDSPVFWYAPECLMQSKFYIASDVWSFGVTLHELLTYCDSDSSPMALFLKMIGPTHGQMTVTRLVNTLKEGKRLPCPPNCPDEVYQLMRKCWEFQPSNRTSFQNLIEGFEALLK

C=CC(=O)Nc1cc(-n2c(=O)ccc3cnc4ccc(-c5cnn(C)c5)cc4c32)ccc1C
IC50 [1]: 339 nM | IC50 [2]: 343 nM

C=CC(=O)Nc1cc(-n2c(=O)ccc3cnc4ccc(-c5ccccc5)cc4c32)ccc1C
IC50 [2]: 25.3 nM

C=CC(=O)N1CCc2ccc(-n3c(=O)ccc4cnc5ccc(-c6ccc(S(=O)(=O)NC(C)(C)C)cc6)cc5c43)cc21
IC50 [1]: 83.6 nM | IC50 [2]: > 10000 nM

C=CC(=O)N1CCc2ccc(-n3c(=O)ccc4cnc5ccc(-c6ccc(N7CCN(C)CC7)cc6)cc5c43)cc21
IC50 [1]: > 10000 nM | IC50 [2]: 1560 nM

C=CC(=O)Nc1cc(-n2c(=O)ccc3cnc4ccc(-c5cn[nH]c5)cc4c32)ccc1C
Ratio [3]: 1.17 µM⁻¹ s⁻¹ | Ki [4]: 2 nM | Kinact [4]: 0.14 min⁻¹

C=CC(=O)Nc1cc(-n2c(=O)ccc3cnc4ccc(-c5ccc6c(c5)OCCO6)cc4c32)ccc1C
IC50 [1]: 160 nM | IC50 [2]: 192 nM

C=CC(=O)Nc1cccc(-n2c(=O)ccc3cnc4ccc(-c5ccc(N)nc5)cc4c32)c1
IC50 [1]: 336 nM | IC50 [2]: 654 nM

C=CC(=O)Nc1cc(-n2c(=O)ccc3cnc4ccc(-c5cnc6ccccc6c5)cc4c32)ccc1C
IC50 [1]: 295 nM | IC50 [2]: 983 nM

C=CC(=O)Nc1cccc(-n2c(=O)ccc3cnc4ccc(-c5cn[nH]c5)cc4c32)c1
IC50 [1]: 293 nM | IC50 [2]: 224 nM

C=CC(=O)Nc1cc(-n2c(=O)ccc3cnc4ccc(-c5ccc(COc6cccc(C(F)(F)F)c6)cc5)cc4c32)ccc1C
IC50 [1]: 2060 nM | IC50 [2]: 650 nM

C=CC(=O)N1CCc2ccc(-n3c(=O)ccc4cnc5ccc(-c6cnc7ccccc7c6)cc5c43)cc21
IC50 [5]: 7.15 nM | IC50 [1]: 191 nM | IC50 [2]: 983 nM

C=CC(=O)Nc1cc(-n2c(=O)ccc3cnc4ccc(-c5ccc(NC(=O)NC)cc5)cc4c32)ccc1C
IC50 [5]: 79.1 nM | IC50 [1]: 1130 nM | IC50 [2]: 218 nM

C=CC(=O)Nc1cc(-n2c(=O)ccc3cnc4ccc(-c5ccsc5)cc4c32)ccc1C
IC50 [1]: 342 nM | IC50 [2]: 38.6 nM

C=CC(=O)Nc1cc(-n2c(=O)ccc3cnc4ccc(-c5ccc(N)nc5)cc4c32)ccc1C
IC50 [1]: 177 nM | IC50 [2]: 177 nM

C=CC(=O)Nc1cc(-n2c(=O)ccc3cnc4ccc(-c5ccoc5)cc4c32)ccc1C
IC50 [1]: 2090 nM | IC50 [2]: 17.4 nM

C=CC(=O)Nc1cc(-n2c(=O)ccc3cnc4ccc(/C=C/c5ccccc5)cc4c32)ccc1C
IC50 [1]: 607 nM | IC50 [2]: 5580 nM

C=CC(=O)N1CCC[C@@H](n2nc(-c3ccc(Oc4ccccc4)cc3)c3c(N)ncnc32)C1 [IBRUTINIB]
GI50 (DU-145): > 10 µM | GI50 [6]: 9.02 µM | GI50 (HEL): 4 µM | GI50 (MOLM-14): 1800 nM | GI50 (NCI-H358): > 10 µM | GI50 [7]: > 10 µM | GI50 [8]: 8.2 µM | GI50 (JVM-2): > 10 µM | GI50 (OCI-AML2): > 10 µM | GI50 (NAMALVA): 6 µM | GI50 (A549): > 10 µM | GI50 (U-937): 8.5 µM | GI50 (LNCaP C4-2): > 10 µM | GI50 (U2932): 4 µM | GI50 (NCI-H1975): 1200 nM | GI50 (HCT-116): > 10 µM | GI50 at 72 h [9]: > 10 µM | GI50 (CMK): > 10 µM | GI50 (NALM-6): > 10 µM | GI50 [10]: 4.4 µM | GI50 (NOMO-1): > 10 µM | GI50 (OCI-AML-3): > 10 µM | GI50 (K562): > 10 µM | GI50 [11]: > 10 µM | GI50 (NCI-H460): > 10 µM | GI50 (Rec1): > 10 µM | GI50 (MOLM-13): 1300 nM | GI50 [12]: 2760 nM | GI50 (A-431): > 10 µM | GI50 (Z-138): > 10 µM | GI50 (HL-60): 3.5 µM | GI50 (SU-DHL-2): 2200 nM | GI50 (HeLa): > 10 µM | GI50 (NB-4): 7.5 µM | GI50 [13]: 8.93 µM | GI50 (Pfeiffer): 8.4 µM
